For 97 compounds, AC50 results are on record in PubChem BioAssay AID463229 (Broad Institute, 2010).

This assay has as its system INS-1E rat beta cells, no cytokines, CellTiter-Glo ATP, 48 h. Put plainly: cytokine-free beta-cell viability effect – INS-1E rat cells, ATP luminescence, cherry pick, counter-screen for beta-cell apoptosis protection project, dose response (AID 463229).
Consider `FC(F)(F)c1cnc(NNC(=S)Nc2ccc(Cl)cc2)c(Cl)c1`, for which the AC50 was 6.99 µM.

In the case of `CCn1cc(/C=C/c2cc[n+](C)cc2)c2ccccc21`, the AC50 is 4.44 µM.

Regarding `O=C(c1ccc2c(c1)[nH]c(=S)n1c3ccccc3nc21)N1CCN(c2cccc(Cl)c2)CC1`, the half-maximal activity concentration (AC50) is 14.5 µM.

As to `O=C(Nc1nc(-c2ccccn2)cs1)c1ccc(Cl)s1`, the AC50 was 4.38 µM.

As for `Cc1sc2ncnc(NC3CCN(Cc4ccccc4)CC3)c2c1C`, the AC50 is 5.11 µM.

Consider `CC(C)CC(=O)NC(c1cccs1)c1ccc2cccnc2c1O` (configuration not stated), for which the AC50 was 2.33 µM.

In the case of `Cc1cc(-c2n[nH]c(=S)n2/N=C/C(Br)=C/c2ccccc2)n[nH]1`, the AC50 was 15.6 µM.

Take `Cc1ccc(-c2cn(-c3ccc(OC(F)F)cc3)c3[n+]2CCCCC3)cc1`: the half-maximal activity concentration (AC50) is 1.45 µM.

For `Cc1cccc2c(C(=O)N3CCN(c4ccccn4)CC3)cc(-c3cccc(Br)c3)nc12`, the AC50 is 3.08 µM.

`Fc1ccc2nc(Nc3nc4c(F)cc(F)cc4s3)sc2c1`: the AC50 was 7.69 µM.

For `COc1cnc(-c2ccccn2)nc1NC(C)C`, the AC50 is 17.2 µM.

In the case of `O=C(Nc1ccc(C(F)(F)F)cc1)C1CCN(S(=O)(=O)c2ccc(N3CCCC3=O)cc2)CC1`, the AC50 is 4.37 µM.

Turning to `O=C(Cc1ccccc1)N/N=C/c1ccc([N+](=O)[O-])s1`, the AC50 is 7.26 µM.

Consider `O=C(Nc1cccnc1)c1cccnc1`, for which the AC50 was 10.9 µM.

With `CCCCCCn1c2c(c(=N)c3c1CCC3)CCC2`, the concentration at half-maximal activity (AC50) is 1.88 µM.

For the compound `COc1cccc(N=Nc2ccc3cccnc3c2O)c1`, the AC50 is 6.8 µM.

With `O=C(Oc1c(CN2CCOCC2)cc(Cl)c2cccnc12)c1cccs1`, the half-maximal activity concentration (AC50) was 16 µM.

For the compound `O=[N+]([O-])c1ccc(Sc2cccc3cccnc23)c([N+](=O)[O-])c1`, the AC50 is 14.5 µM.

In the case of `COc1cc(/C=N/N=C(N)N)ccc1OCc1ccc(Cl)cc1`, the half-maximal activity concentration (AC50) was 7.22 µM.

In the case of `Cc1cc2nc(NCCCO)n(CC(=O)c3cc(C(C)(C)C)c(O)c(C(C)(C)C)c3)c2cc1C`, the half-maximal activity concentration (AC50) was 8.83 µM.

For the compound `CN(C)CCCn1cnc2c(c1=N)C(c1ccccc1)c1ccc3ccccc3c1O2` (configuration not stated), the half-maximal activity concentration (AC50) is 7.08 µM.

For `Cc1ccc2c(c1)S/C(=C/c1ccc[n+](CCO)c1)N2C`, the AC50 was 3 µM.

Consider `Oc1ccc(Br)cc1CNc1cccc2cccnc12`, for which the AC50 was 12.8 µM.

For `O=C(c1cc(COc2cccc(C(F)(F)F)c2)on1)N1CCC(c2ccncc2)CC1`, the half-maximal activity concentration (AC50) is 7.14 µM.

In the case of `Cc1cc([N+](=O)[O-])nn1Cc1ccc(C(=O)N/N=C/c2ccc(O)cc2O)cc1`, the AC50 was 6.27 µM.

Consider `Cn1nnnc1N=N/C(=N/Nc1ccccc1)c1ccccc1`, for which the AC50 was 4.36 µM.

As for `O=[N+]([O-])c1ccc(/C=N/n2cnc3ccccc32)s1`, the concentration at half-maximal activity (AC50) is 4.04 µM.

`O=C1/C(=C/c2cccnc2)CCC/C1=C\c1cccnc1`: the half-maximal activity concentration (AC50) was 6.89 µM.

For `c1ccc(CN2CCN(Cc3c[nH]c4ccccc34)CC2)cc1`, the concentration at half-maximal activity (AC50) was 7.83 µM.

With `COc1ccc(-c2c([C@H]3[C@H]4C=CC[C@@H](C)[C@@H]4C(=O)N3Cc3ccccc3)ccc3ccccc23)cc1`, the concentration at half-maximal activity (AC50) was 7.67 µM.

On to `COc1cccc(CNCCc2c[nH]c3ccccc23)c1OCc1ccccc1F`, for which the AC50 was 7 µM.

As to `O=[N+]([O-])/C=C/c1ccc2c(ccn2Cc2ccccc2)c1`, the AC50 is 7.72 µM.

For `O=C(N/N=C/c1ccc(O)cc1O)/C(=C/c1ccccc1)CCO`, the half-maximal activity concentration (AC50) is 6.54 µM.

With `Cc1cc(N/N=C/c2ccc(O)cc2O)nc(-c2ccccc2O)n1`, the half-maximal activity concentration (AC50) was 7.47 µM.

With `Cc1ccccc1C(=O)Nc1cccc(C(=O)N/N=C/c2cc(Cl)cc([N+](=O)[O-])c2O)c1`, the AC50 is 13.3 µM.

On to `COc1ccc(C(=O)NCC(=O)N/N=C/c2ccc([N+](=O)[O-])s2)cc1OC`, for which the AC50 was 13.5 µM.

As to `N#Cc1ccc(-c2csc(NNC(=O)c3ccc(Br)cc3)n2)cc1`, the half-maximal activity concentration (AC50) is 15.6 µM.

Take `Cc1ccc(C)c(NC(=O)c2ccccc2NS(=O)(=O)c2cc([N+](=O)[O-])ccc2C)c1`: the AC50 was 3.94 µM.

For `Cc1ccccc1C(=O)N1CCN(c2ccc(NC(=O)c3cccnc3)cc2)CC1`, the AC50 is 11.7 µM.

Turning to `COc1ccc(S(=O)(=O)/N=C2\C=C(Nc3ccc(O)cc3)C(=O)c3ccccc32)cc1`, the AC50 was 1.65 µM.

For the compound `Brc1ccc(-[n+]2c(-c3ccccc3)cc(-c3ccccc3)cc2-c2ccccc2)cc1`, the AC50 is 2.4 µM.

For the compound `Clc1cc2cccnc2c2ncccc12`, the concentration at half-maximal activity (AC50) is 15 µM.

`CN(C)CCCNc1c2ccccc2nc2ccccc12`: the half-maximal activity concentration (AC50) is 16.2 µM.

As to `CC(C)(C)c1cc(CCC(=O)NNC(=S)NC(=O)c2ccccc2)cc(C(C)(C)C)c1O`, the AC50 was 7.17 µM.

Turning to `O=C(CCCCCCCCCCC(=O)NCc1cccnc1)NCc1cccnc1`, the AC50 is below 0.195 µM.

As for `CCn1c(/C=C/c2ccc([N+](=O)[O-])o2)nc2ccccc2c1=O`, the concentration at half-maximal activity (AC50) is 4.08 µM.

On to `O=C(c1cc(-c2cccc(O)c2)on1)N1CCN(C(c2ccccc2)c2ccccc2)CC1`, for which the concentration at half-maximal activity (AC50) is 14.4 µM.

Consider `Cc1ccc(C#CC[N+]2(CC#Cc3ccc(C)cc3)CCCCC2)cc1`, for which the concentration at half-maximal activity (AC50) was 3.33 µM.

In the case of `COc1cccc(/C=N/Nc2ncnc3scc(-c4ccccc4)c23)c1O`, the half-maximal activity concentration (AC50) is 2.02 µM.

Turning to `Cc1ccc(C(=O)N2N=C(c3ccc(Br)cc3)CC2c2ccccc2O)cc1` (configuration not stated), the AC50 is 7.3 µM.

`COc1cccc(-c2nc(-c3ccc(NC(=O)c4cccnc4)cc3)no2)c1`: the AC50 is 2.14 µM.

As for `Cc1cc(=O)[nH]c(N/N=C/c2ccccn2)n1`, the half-maximal activity concentration (AC50) was 5.21 µM.

As to `COCCNC(=O)CSC1=N/C(=C/c2ccc(Cl)c(Cl)c2)C(=O)N1c1ccccc1F`, the half-maximal activity concentration (AC50) was 8.25 µM.

As to `Cc1occc1C(=O)N/N=C/c1ccc2c(c1)OCO2`, the concentration at half-maximal activity (AC50) is 5.48 µM.

In the case of `O=C(NCc1cccnc1)c1ccc(NC(=O)c2ccc([N+](=O)[O-])cc2)cc1`, the AC50 was 0.215 µM.

For `Cn1nc([N+](=O)[O-])nc1Sc1cccc2cccnc12`, the concentration at half-maximal activity (AC50) was 7.81 µM.

`COc1cccc(/C=N\NC(=O)c2ccc(Cn3cc(Br)c([N+](=O)[O-])n3)o2)c1O`: the half-maximal activity concentration (AC50) was 7.9 µM.

For `CC(=O)c1ccc(N2CCN(S(=O)(=O)c3ccc4c(c3)CC(C)N4C(C)=O)CC2)cc1` (configuration not stated), the concentration at half-maximal activity (AC50) was 8.54 µM.

For the compound `OCc1ccc(O)c2ncccc12`, the AC50 is 2.38 µM.

As for `C=C(C)C(=O)OCC(O)COc1ccc(C(C)(C)c2ccc(OCC(O)COC(=O)C(=C)C)cc2)cc1` (configuration not stated), the AC50 is 19.2 µM.

As for `O=C(N/N=C/c1cc([N+](=O)[O-])ccc1O)c1cccc(NC(=O)c2cccc(Cl)c2)c1`, the AC50 was 5.82 µM.

`COc1ccc(CNCCC(c2ccccc2)c2ccc3c(c2)OCO3)cc1` (configuration not stated): the AC50 was 15.2 µM.

In the case of `Cc1ccccc1N1CCN(Cc2c[nH]c3ccccc23)CC1`, the AC50 was 7.37 µM.

For the compound `COc1ccc(OC)c(NC(=O)CSc2ncnc3c2cnn3-c2ccccc2Cl)c1`, the half-maximal activity concentration (AC50) is 2.31 µM.

For `NNc1nc(-c2ccccc2)cc(-c2ccccc2O)n1`, the AC50 is 17.7 µM.

With `c1ccc(-c2nc3nonc3nc2-c2ccccc2)cc1`, the AC50 was 11.1 µM.

As for `CCCCCCOC(=O)C[N+](C)(C)CCOC1CC2CCC1(C)C2(C)C` (configuration not stated), the AC50 was 4.48 µM.

On to `CCCCCCCCCCOC(=O)Cn1c(COc2ccccc2OC)[n+](C)c2ccccc21`, for which the AC50 was 1.09 µM.

Turning to `O=C(CSc1nc2ccccc2c(=O)n1-c1ccccc1)N1CCc2ccccc2C1`, the AC50 was 3.16 µM.

For `COc1cc(NC(=O)c2[nH]cnc2C(N)=O)cc(C(=O)Nc2cccc(C(F)(F)F)c2)c1`, the concentration at half-maximal activity (AC50) was 5.21 µM.

Take `Oc1ccc(CN2CCc3ccccc3C2)c2cccnc12`: the concentration at half-maximal activity (AC50) is 3.7 µM.

Turning to `O=C(NCc1cccnc1)c1ccc([N+](=O)[O-])cc1`, the concentration at half-maximal activity (AC50) is 5.86 µM.

Take `COc1ccc(CNCCc2c(C)[nH]c3ccc(OC(F)(F)F)cc23)c(OC)c1`: the AC50 was 6.6 µM.

Take `COc1ccc(C(=O)N/N=C(\c2ccccc2)c2ccccn2)cc1`: the concentration at half-maximal activity (AC50) was 3.51 µM.

With `Cc1ccc(NC(=O)Cn2c(=O)oc3cc(S(=O)(=O)N4CCC(C)CC4)ccc32)cc1C`, the AC50 is 16 µM.

Turning to `COc1cnc(-c2ccccn2)nc1Oc1ccc(C(C)(C)C)cc1`, the AC50 is 13.7 µM.

Consider `CN1CCN(C(c2ccc(C(F)(F)F)cc2)c2ccc3cccnc3c2O)CC1` (configuration not stated), for which the AC50 was 4.56 µM.

`O=C(NCc1ccccc1)C1=C[C@@H](c2csc3ccccc23)C[C@@H](OCc2ccc(CO)cc2)O1`: the AC50 is 5.16 µM.

As to `O=C(c1cc2sccc2n1Cc1ccc(F)cc1)N1CCN(c2nc3ccccc3s2)CC1`, the half-maximal activity concentration (AC50) was 5.82 µM.

For the compound `O=C(Nc1ccc(S(=O)(=O)N2CCOCC2)cc1)c1ccc([N+](=O)[O-])s1`, the AC50 was 6.8 µM.

For `CC1CCC(C(C)C)C(OC(=O)C[n+]2cc(-c3ccc(Cl)cc3)n3c2CCCCC3)C1` (configuration not stated), the half-maximal activity concentration (AC50) was 7.32 µM.

For `Cc1ccc2c(c1)N(C)/C(=C/c1cccc[n+]1CCO)S2`, the AC50 is 3.18 µM.

As for `CC(=O)Oc1c(I)cc(I)cc1C(=O)Nc1ccc(Cl)cc1`, the AC50 is 14.8 µM.

On to `C/C(=N\Nc1ccc2nncn2n1)c1ccccn1`, for which the AC50 was 2.72 µM.

With `Fc1ccc(-c2cc(-c3nnc4n3CCCCC4)c3ccccc3n2)cc1`, the AC50 was 8.53 µM.

With `CN(C)CCCN(C(=O)c1ccc(S(=O)(=O)N(C)Cc2ccccc2)cc1)c1nc2cc3c(cc2s1)OCO3`, the half-maximal activity concentration (AC50) is 15.9 µM.

For `O=C1C(=O)c2c(C(=O)c3ccccc3)coc2-c2ccccc21`, the concentration at half-maximal activity (AC50) is 7.21 µM.

On to `O=C(c1cc(-c2cccc(Cl)c2)nc2ccccc12)N1CCN(c2ccccn2)CC1`, for which the AC50 is 12.4 µM.

On to `COc1cc2ccccc2cc1C(=O)Nc1sc2c(c1C(N)=O)CCN(C(C)C)C2`, for which the AC50 was 9.16 µM.

On to `CCn1c(-c2ccc(N(C)C)cc2)nc2ccccc21`, for which the concentration at half-maximal activity (AC50) is 3.75 µM.

With `CCn1c(=NC(=O)CCS(=O)(=O)c2ccccc2)sc2cccc(OC)c21`, the AC50 is 7.2 µM.

For the compound `COc1ccc2nc(C)cc(N/N=C/c3ccc(F)cc3)c2c1`, the AC50 was 7.11 µM.

`O=C(Nc1cccc(Cl)c1)Nc1nnc(CSCCOc2ccc(Cl)cc2)s1`: the AC50 is 5.39 µM.

As to `COc1ccc2cc1Oc1ccc(cc1)C[C@H]1c3cc(c(OC)cc3CCN1C)Oc1c(O)c(OC)cc3c1[C@H](C2)N(C)CC3`, the AC50 is 7.07 µM.

As to `CC1CCN(Cc2c(C(=O)N/N=C/c3cc(Cl)ccc3O)nnn2-c2nonc2N)CC1`, the AC50 is 2.08 µM.

As to `Cc1cc(C)c2c(N)c3cccc(C)c3nc2n1`, the AC50 was 7.91 µM.

On to `CC(=O)c1ccc(NC(=S)NC(C)c2ccc(Cl)cc2Cl)cc1` (configuration not stated), for which the AC50 was 21.1 µM.
